# US5668159A, “1,3,4-thiadiazoles and 1,3,4-oxadiazoles as IIb/IIIa antagonists” (The DuPont Merck Pharmaceutical Company, priority 1996, dated 1997)
# Counter-ions that a name gives are not always drawn.
# Test system: platelet aggregation (platelet rich plasma (PRP))
# Experiment: Platelet Aggregation Assay (inhibition of agonist-induced platelet aggregation in platelet rich plasma)
# Format: cell-based
# Settings: with esterase, ester prodrugs preincubated with 100 IU/mL porcine liver esterase 2 hours at 37° C., human PRP, 100 μM ADP, read-out: Platelet Aggregation Assay IC50 (with esterase)
# Protocol: Platelet Aggregation Assay: Venous blood was obtained from the arm of a healthy human donor who was drug-free and aspirin-free for at least two weeks prior to blood collection. Blood was collected into 10 mL citrated Vacutainer tubes. The blood was centrifuged for 15 minutes at 150× g at room temperature, and platelet-rich plasma (PRP) was removed. The remaining blood was centrifuged for 15 minutes at 1500× g at room temperature, and platelet-poor plasma (PPP) was removed. Samples were assayed on a aggregometer (PAP-4 Platelet Aggregation Profiler), using PPP as the blank (100% transmittance). 200 μL of PRP was added to each micro test tube, and transmittance was set to 0%. 20 μL of various agonists (ADP, collagen, arachidonate, epinephrine, thrombin) were added to each tube, and the aggregation profiles were plotted (% transmittance versus time). The results are expressed as % inhibition of agonist-inducedplatelet aggregation. For the IC50 evaluation, the test compounds were added at various concentrations prior to the activation of the platelets.
# Ester prodrugs were preincubated (10^-3 M F.C.) with 100 IU/mL Porcine liver esterase (Sigma Chemical Co., St. Louis, Mo., #E-3128) for 2 hours at 37° C. Aliquots are then diluted in 0.1M Tris, p H 7.4, to the desired concentrations. Aliquots of 20 μl of the esterase pretreated prodrugs are added to 200 μl of human platelet rich plasma. Samples were placed in platelet profiler (aggregometer) for 8 minutes at 37° C., followed by the addition of 100 μM Adenosine Diphosphate, (Sigma Chemical Co., St. Louis, Mo., #A-6521), to induce platelet aggregation. Platelet aggregation was allowed to proceed for 5 minutes. Percent inhibition is calculated using percent aggregation in the presence of the test compound divided by percent aggregation of control, times 100. This value is subtracted from 100, yielding percent inhibition. Calculation of IC50 is performed on a Texas Instruments TI59 with an IC50 program.
# Table A below sets forth the antiplatelet activity of representative compounds of the present invention. The indicated compounds were tested for their ability to inhibit platelet aggregation (using platelet rich plasma (PRP)). The IC50 value (the concentration of antagonist which inhibits platelet aggregation by 50% relative to a control lacking the antagonist) is shown. In Table A the IC50 values are expressed as: +++=IC50 of <10 μM; ++=IC50 of […]; +=IC50 of 50-100 μM (μM=micromolar).
row,Structure (SMILES),IC50
1,"CCOC(=O)[C@H](Cc1ccccc1)NC(=O)CSc1nnc(-c2ccc(C(=N)N)cc2)o1 [Example 399, Ethyl N-[2-{2-(4-amidinophenyl)-1,3,4-oxadiazol-5-ylthio}-acetyl]-(S)-phenylalanine HCl salt]",10 to 50 µM
2,"CCCCOC(=O)NC[C@H](NC(=O)CSc1nnc(-c2ccc(C(=N)N)cc2)s1)C(=O)OC [Example 440, Methyl N^2-[2-{2-(4-amidinophenyl)-1,3,4-thiodiazol-5-ylthio}-acetyl]-N^3-(n-butyloxycarbonyl)-2,3-(S)-diaminopropionate HCl salt]",< 10 µM
